Data published in a melting point compilation (Tetko et al.).

melting point [°C] | SMILES
124 to 126 | O=C(O)CSCc1coc(-c2ccccc2)n1
119 to 121 | Cn1nc(C(F)(F)F)c(C(=O)O)c1C(F)(F)Cl
145 to 147 | CC(O)(C(=O)O)c1cccc2ccccc12 (stereo not drawn)
197 to 199 | Cc1nc2[nH]cnc2cc1Br
108 to 110 | COc1ccc2cc(C(=O)CBr)ccc2c1
279 to 281 | Cc1nc(-c2cccnc2)[nH]c(=O)c1CCC(=O)O
146 to 148 | Cc1cccc(-c2nn(-c3ccccc3)cc2C(=O)O)c1
185 to 187 | Nc1cccc(NC(=O)c2ccncc2)c1
99 to 101 | OCc1ncc[nH]1
172 to 174 | COc1ccc(-c2nc(C(=O)O)cs2)cc1
124 to 126 | NC(=O)c1cccc(Cl)n1
113 to 115 | O=C(NCC(F)(F)F)c1ccc(O)cc1
169 to 171 | O=C(O)c1ccc(Oc2cc(Cl)ccc2Cl)cc1
198 to 200 | COc1ccc(C(=O)Nc2ccc(C(=O)O)s2)cc1
61 to 63 | CC1CCN(Cc2ccc(N)cc2)CC1
364 to 366 | O=c1[nH]c(S)nc2ccsc12
157 to 159 | NC(=S)N1CCSCC1
136 to 138 | Cc1nc(N)c(Cl)cc1Cl
44 to 46 | Clc1cccc(-c2noc(Cl)n2)c1
105 to 107 | CCCNc1nnc(S)s1
66 to 68 | CS(=O)(=O)NCc1cccc(Br)c1
155 to 157 | O=C(O)C1(c2ccc(Br)cc2)CC1
177 to 179 | Nc1ccc(Oc2ccc(Cl)cc2)cc1C(=O)O

melting point [°C] | SMILES
160 to 162 | O=C(O)CNC1=NS(=O)(=O)c2ccccc21
136 to 138 | CCOC(=O)c1c(C)oc2ccc(O)cc12
199 to 201 | Cn1c(-c2ccccc2)cnc1SCC(=O)O
104 to 106 | NNC(=S)NCC1CCC1
75 to 77 | COc1cc(Br)cc(F)c1C#N
110 to 112 | CC(Oc1cccc(C#N)c1)C(=O)O (stereo not drawn)
55 to 57 | COc1ccc(C(CNC(=O)OCC(F)(F)F)N2CCCC2)cc1 (stereo not drawn)
105 to 118 | Cc1noc(C)c1S(=O)(=O)NCCC(=O)O
190 to 193 | CC(=O)Nc1ccc(C(=O)C(C)Cl)cc1 (stereo not drawn)
142 to 144 | O=C1CN(Cc2ccc(Br)cc2F)CCN1
124 to 126 | CN(C)C1CCN(c2ccc(N)cc2F)CC1
108 to 110 | CS(=O)(=O)c1ccc(OCCC(=O)O)cc1
118 to 122 | O=C(CCl)NC1C2CC3CC(C2)CC1C3 (stereo not drawn)
95 to 97 | COC(=O)c1cc(N)cc(Cl)c1
179 to 181 | NS(=O)(=O)c1ccc(OCc2ccccc2Cl)cc1
93 to 95 | Cc1ccoc1C(=O)CC#N
164 to 166 | Cn1c(Cl)c(C=O)c2cc(C=O)ccc21
171 to 173 | O=C(CCCl)Nc1ccc([N+](=O)[O-])cc1
132 to 134 | CC(C)(C)OC(=O)N1CCC2(CC1)CC2C(=O)NN (stereo not drawn)
62 to 64 | O=C(O)CCn1cccc1
197 to 199 | C=CC(=O)Nc1ccc(Br)cc1
199 to 201 | N#CCn1cc(C(=O)O)c2ccccc21
138 to 140 | Fc1ccc(-c2nnc(CCl)o2)cc1

melting point [°C] | SMILES
220 to 222 | O=C(O)c1ccc2c(c1)C(=O)N(C1CC1)C2=O
189 to 191 | COc1cc(OC)c(N)c(C(=O)O)c1
29 to 31 | O=C(c1ccc(Br)cc1)C(F)(F)F
209 to 211 | Nc1cc(C(=O)O)ccc1I
129 to 131 | N#Cc1cc(-c2ccccc2)c(-c2ccccc2)nc1Cl
319 to 321 | Nc1cc2ccccc2c(=O)[nH]1
228 to 230 | Cc1ccc(S(=O)(=O)N(C)CC(=O)O)cc1
86 to 88 | N#Cc1ccc(CSCC(=O)O)cc1
148 to 150 | Cn1cnc(-c2ccc(F)cc2)c1N
208 to 210 | N#Cc1ccc2nc(Cl)ccc2c1
89 to 91 | CC(=Cc1ccc(Br)o1)[N+](=O)[O-]
86 to 88 | Nc1cc(CC2CC3CCC2C3)no1 (stereo not drawn)
274 to 276 | O=C(O)Cn1ccc(=O)c2ccccc21
132 to 134 | Nc1ccc(NC(=O)N2CCCCCC2)cc1
146 to 148 | CSc1nc(C)c(CC(=O)O)s1
63 to 65 | CSc1ccc(OCCCl)cc1
104 to 106 | CCn1cc(C=O)c2ccccc21
65 to 67 | COc1ccc(NC(=O)C(C)Cl)c(OC)c1 (stereo not drawn)
100 to 102 | c1ccc2sc(NC3CCCCC3)nc2c1
101 to 103 | COc1ccc(-c2csc(CC#N)n2)cc1OC
188 to 190 | O=C(O)c1cc(S(=O)(=O)N2CCOCC2)ccc1Br
163 to 165 | Cc1ccc(NC(=O)C2CC2)cc1N
152 to 154 | N#Cc1cc(C(F)(F)F)ccc1O

melting point [°C] | SMILES
94 to 96 | O=C(CCl)NCC1Cc2ccccc2O1 (stereo not drawn)
79 to 81 | Cc1cc([N+](=O)[O-])c(S(=O)(=O)Cl)cc1C
199 to 201 | CCOC(=O)c1cnc(C)c(C(=O)O)c1
181 to 183 | COc1cc(OC)c2cc(C(=O)O)[nH]c2c1OC
182 to 184 | NC(=O)c1ccc(OCCCl)cc1
119 to 121 | CN(C)S(=O)(=O)c1ccc(Cl)c(N)c1
209 to 211 | O=Cc1ncc(-c2cccc(Br)c2)[nH]1
104 to 106 | Nc1ccc(I)cc1O
218 to 220 | Nc1cccnc1C(=O)O
89 to 91 | Cc1cc(N2CCOCC2)ccc1N
228 to 230 | O=C1NCCc2ccc([N+](=O)[O-])cc21
198 to 200 | O=C(O)c1csc(-c2ccc([N+](=O)[O-])cc2)n1
96 to 98 | OCc1noc(-c2ccc(F)cc2)n1
133 to 135 | COc1cccc2[nH]cc(CC#N)c12
185 to 187 | CC1=CC=CC(=C2Nc3cc(F)ccc3N2C(C)C)C1=N
109 to 111 | O=C(O)c1cc(S(=O)(=O)Cl)c(Br)s1
237 to 241 | O=C(O)CN(CCCCCCN(CC(=O)O)CC(=O)O)CC(=O)O
169 to 171 | Cc1ccc(C(=O)O)c(Sc2ccccc2)n1
71 to 73 | CC(C)C(Br)C(=O)N1CCOCC1 (stereo not drawn)
233 to 235 | O=C(O)/C=C/c1cccc(Cl)c1Cl
155 to 157 | Nc1cccc(C(=O)N2CCC(CO)CC2)c1
163 to 165 | Cc1nc(CNC(=O)OC(C)(C)C)ccc1C(=O)O
87 to 89 | O=S(=O)(Cl)c1ccc2ncccc2c1

melting point [°C] | SMILES
128 to 130 | Nc1ccc(F)c(S(=O)(=O)N2CCOCC2)c1
85 to 87 | CC(C)(C)OC(=O)NC(C#N)c1ccc(F)cc1 (stereo not drawn)
30 to 32 | CCOc1cc(C=O)ccc1OC(F)F
88 to 92 | COc1ccc(C(=O)CCl)cc1F
114 to 116 | N#Cc1ccc(C(Cl)C(N)=O)cc1 (stereo not drawn)
134 to 136 | Nc1ccc(CN2C(=O)CSC2=O)cc1
135 to 137 | CCOC(=O)Cc1c(C)nc(O)nc1C
169 to 171 | Cc1cc(C)c([N+](=O)[O-])c(C)c1C(=O)O
194 to 196 | O=C(O)c1cc(-n2ccnc2)ccn1
189 to 191 | O=S(=O)(NC1CCNCC1)c1ccc(Cl)cc1
129 to 131 | O=C(O)Cn1nccn1
51 to 53 | COC(=O)c1cccc(S(=O)(=O)Cl)c1
142 to 144 | Cc1c(NC(=O)CSc2nnc(N)s2)c(=O)n(-c2ccccc2)n1C
162 to 164 | CC(C)(C)OC(=O)N1CCOCC1C(=O)O (stereo not drawn)
324 to 327 | Cc1cc(O)cc(O)n1
54 to 56 | CCC(C)n1nc(N)cc1C (stereo not drawn)
254 to 256 | CSc1[nH]c(=O)c(C(=O)O)cc1C#N
137 to 139 | COc1ccc(Br)cc1C(=O)C(=O)O
138 to 140 | CN(C)c1ccc(N2C(=O)CSC2=S)cc1
67 to 69 | Cc1nc(Cl)cc(-c2cccnc2)n1
248 to 252 | Cc1c(C(=O)O)sc2nc[nH]c(=O)c12
146 to 148 | CCCCn1c(=O)c(CCC(=O)O)nc2ccccc21
77 to 79 | Nc1cc(C2CCC2)no1

melting point [°C] | SMILES
54 to 56 | COC(=O)c1ccc(CN2CCC(CO)CC2)cc1
160 to 162 | Clc1nc(-c2ccccn2)nc2scc(-c3ccccc3)c12
179 to 181 | Nc1ccc(F)c(NS(=O)(=O)c2cccs2)c1
72 to 74 | CC(C)(C)OC(=O)N1CCC(CC#N)CC1
73 to 75 | Fc1ccc(-n2nccc2Br)cc1
126 to 128 | Nc1cccc(C(=O)CCC(=O)O)c1
86 to 88 | COC(=O)C(=O)CC(=O)c1ccc(C)cc1
73 to 75 | NC(=O)c1cccnc1NC1CCN(Cc2ccccc2)CC1
62 to 64 | NC1CCN(c2c(F)cccc2F)C1=O (stereo not drawn)
86 to 88 | N#Cc1cccc(C(=O)NCc2ccco2)c1
174 to 176 | O=C(O)c1cccc(S(=O)(=O)N2CCc3ccccc32)c1
135 to 137 | O=C1CC2(CCSC2)C(=O)N1 (stereo not drawn)
228 to 230 | O=C(O)c1ccc(Sc2ccccc2)c([N+](=O)[O-])c1
55 to 57 | Nc1ccc(Sc2ccccc2)c(Cl)c1
102 to 104 | COc1cccc(C(C)=CC(=O)O)c1
177 to 179 | O=C(O)CNC(=O)c1cc2c(s1)CCCC2
102 to 104 | COC(=O)c1ccc(Br)c(S(=O)(=O)Cl)c1
149 to 151 | O=C(Nc1ccc(S(=O)(=O)Cl)cc1)c1ccc(F)cc1
155 to 157 | O=Cc1cc(Cl)cc2cccnc12
63 to 65 | O=C(c1cc2ccccc2o1)C1CC1

SMILES | melting point [°C]
COc1ccc(CCN)c(O)c1 | 98 to 100
COc1ccccc1NC1=NCCCS1 | 83 to 85
COc1ccccc1NC1=NCC(C)S1 (stereo not drawn) | 92 to 97
Cc1cc(N)ccc1NC(=O)CN1CCCC1=O | 209 to 211
COc1ccc(-c2nn(CCC#N)cc2C(=O)O)cc1[N+](=O)[O-] | 190 to 192
Cc1cc(C(=O)O)c(C)n1Cc1ccccc1 | 196 to 200
CN(C)CCN=C=S | 35 to 37
COc1cc2c(c(OC)c1OC)CCNCC2 | 60 to 62
